# Assay: Example 4a: noncompartmental pharmacokinetics of exhaled 2-butanone and 2-pentanone by mGC;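 for TThresh: time until breath level first exceeds the mGC detection limit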
# Assay type: in vivo, human
# Source text: Test Materials. […] 2-butanol was purchased from Penta Manufacturing Company (Fairfield, N.J.). 2-pentanol and L-carvone were purchased from Sigma-Aldrich (St. Louis, Mo.). […] 2-pentanone was also used as a taggant, but we hypothesized that its inherent volatility would allow exhalation without need for metabolism. L-carvone tastes like spearmint and was used as a flavor mask. All capsules were filled on the day of the experiment.
# Subject Enrollment and Protocol. This protocol (20100140) was approved by the Western Institutional Review Board (Olympia, Wash.). Healthy subjects (n=5) aged >18 years of age and of either sex were recruited. Informed, written consent was obtained from all enrolled subjects. The study consisted of a single experimental limb with six replicates per subject. Therefore, for five subjects with six replicated experiments, a total of 30 studies were performed. Subjects were free to eat ad lib prior to participation in the study. At commencement of the experiments, subjects provided a baseline breath sample (designated time 0 min) into the mGC for analysis as described subsequently. Then, subjects orally consumed the previously detailed capsule with 177 mL (6 ounces) of water. Following ingestion, we observed the breath concentration-time relationships of 2-butanone and 2-pentanone by collecting single-breath samples at times 5, 10, 15, 20, 30, 45, and 60 min. After 60 min, the experiment was concluded. After at least one day's respite, subjects returned for replicate experiments on five additional occasions.
# 2-Butanone and 2-Pentanone Measurement in Human Breath by mGC. Breath specimens were analyzed “real-time” to measure the concentrations of 2-butanone and 2-pentanone using the mGC (Xhale, Inc. Gainesville, Fla.) as previously described. In brief, a mouthpiece (FST®, Intoximeters, Inc., St. Louis, Mo.) was attached to the inlet of the mGC. A 15 mL side-stream sample was aspirated during a single exhalation over 5 s through this inlet port to a room temperature concentrator trap containing 4 mg of Tenax TA (Sigma-Aldrich). The trap temperature was then increased to 130° C. and the volatile components transferred to a 5 m by 0.53 mm internal diameter, metal clad, BAC-1 capillary column (Restek Corp, Bellefonte, Pa.) operated at 55° C. The effluent from the column then flowed to the metal oxide detectors. Separation of the markers from other volatile organic compounds present in the sample (i.e., acetone and isoprene) occurred in approximately 2 min. Data were tabulated and graphically presented over time to determine the concentrations of 2-butanone and 2-pentanone in a given breath specimen. Data are reported in parts-per-billion (ppb) based on molar fractions to account for differing ambient atmospheric pressures and temperature.
# Pharmacokinetic Analysis. Analyte breath concentrations reported as ppb were converted to ng/mL by multiplying each concentration by the molecular weight of the respective molecule to allow proper functioning of conventional PK software for noncompartmental analysis (WinNonlin 5.2, Pharsight Corporation, St. Louis, Mo.). Estimates were generated for the following PK parameters (abbreviation, unit): first-order elimination rate constant (Lambda Z, min-1), half-life of elimination (Half-life, min), maximal drug concentration (CMAX, μg/mL), time at maximal drug concentration (TMAX, min), area under concentration versus time curve from zero to the last time point (AUC0-LAST, min*μg/mL), area under concentration versus time curve from zero to infinity (AUC0-∞, min*μg/mL), percentage of area under concentration versus time curve from zero to infinity, which is extrapolated from AUC0-t (% AUC Extrap) and the mean residence time (MRT, min). The area under concentration versus time curve (AUC) was calculated using the linear trapezoidal rule. All values are reported separately for each subject as mean±standard deviation following conversion from ng/mL to ppb. […]
compound,measurement,setting,value
"CCC(C)=O [Formulation 2-butanone, 2-butanone]",% AUC Extrap,30 observations,17.9%
same,AUC0-8,30 observations,51190 min · ppb
same,AUC0-LAST,30 observations,41820 min · ppb
same,CMAX,30 observations,1376 ppb
same,Half-life,30 observations,216 min
same,LAMBDA_Z,30 observations,0.036 min⁻¹
same,MRT0-last,30 observations,25.7 min
same,TMAX,30 observations,17.8 min
same,% AUC Extrap,REPLICATE 1,41.3%
same,AUC0-LAST,REPLICATE 1,53278 min · ppb
same,AUC0-∞,REPLICATE 1,64618 min · ppb
same,CMAX,REPLICATE 1,1793 ppb
same,Half-life,REPLICATE 1,21.1 min
same,LAMBDA_Z,REPLICATE 1,0.036 min⁻¹
same,MRT0-last,REPLICATE 1,24.4 min
same,TMAX,REPLICATE 1,15.0 min
same,TThresh,"REPLICATE 1, same 5 subjects",5.0 min
same,% AUC Extrap,REPLICATE 2,47.3%
same,AUC0-LAST,REPLICATE 2,44693 min · ppb
same,AUC0-∞,REPLICATE 2,58070 min · ppb
same,CMAX,REPLICATE 2,1361 ppb
same,Half-life,REPLICATE 2,24.1 min
same,LAMBDA_Z,REPLICATE 2,0.033 min⁻¹
same,MRT0-last,REPLICATE 2,28.3 min
same,TMAX,REPLICATE 2,21.0 min
same,TThresh,REPLICATE 2,7.0 min
same,% AUC Extrap,REPLICATE 3,31.3%
same,AUC0-LAST,REPLICATE 3,36508 min · ppb
same,AUC0-∞,REPLICATE 3,42226 min · ppb
same,CMAX,REPLICATE 3,1175 ppb
same,Half-life,REPLICATE 3,16.4 min
same,LAMBDA_Z,REPLICATE 3,0.048 min⁻¹
same,MRT0-last,REPLICATE 3,24.8 min
same,TMAX,REPLICATE 3,17.0 min
same,TThresh,REPLICATE 3,6.0 min
same,% AUC Extrap,REPLICATE 4,37.3%
same,AUC0-LAST,REPLICATE 4,44467 min · ppb
same,AUC0-∞,REPLICATE 4,52141 min · ppb
same,CMAX,REPLICATE 4,1449 ppb
same,Half-life,REPLICATE 4,21.2 min
same,LAMBDA_Z,REPLICATE 4,0.038 min⁻¹
same,MRT0-last,REPLICATE 4,23.9 min
same,TMAX,REPLICATE 4,19.0 min
same,TThresh,REPLICATE 4,6.0 min
same,% AUC Extrap,REPLICATE 5,54.6%
same,AUC0-LAST,REPLICATE 5,37792 min · ppb
same,AUC0-∞,REPLICATE 5,491783 min · ppb
same,CMAX,REPLICATE 5,1227 ppb
same,Half-life,REPLICATE 5,27.7 min
same,LAMBDA_Z,REPLICATE 5,0.026 min⁻¹
same,MRT0-last,REPLICATE 5,26.6 min
same,TMAX,REPLICATE 5,15.0 min
same,TThresh,REPLICATE 5,7.0 min
same,% AUC Extrap,REPLICATE 6,39.2%
same,AUC0-LAST,REPLICATE 6,34184 min · ppb
same,AUC0-∞,REPLICATE 6,40905 min · ppb
same,CMAX,REPLICATE 6,1251 ppb
same,Half-life,REPLICATE 6,18.9 min
same,LAMBDA_Z,REPLICATE 6,0.037 min⁻¹
same,MRT0-last,REPLICATE 6,26.5 min
same,TMAX,REPLICATE 6,20.0 min
same,TThresh,REPLICATE 6,6.0 min
same,% AUC Extrap,SUBJECT 1,22.6%
same,AUC0-LAST,SUBJECT 1,45298 min · ppb
same,AUC0-∞,SUBJECT 1,59106 min · ppb
same,CMAX,SUBJECT 1,1297 ppb
same,Half-life,SUBJECT 1,22.6 min
same,LAMBDA_Z,SUBJECT 1,0.033 min⁻¹
same,MRT0-last,SUBJECT 1,29.3 min
same,TMAX,SUBJECT 1,21.7 min
same,TThresh,"SUBJECT 1, six replicates",6.7 min
same,% AUC Extrap,SUBJECT 2,19.2%
same,AUC0-LAST,SUBJECT 2,66466 min · ppb
same,AUC0-∞,SUBJECT 2,82628 min · ppb
same,CMAX,SUBJECT 2,1926 ppb
same,Half-life,SUBJECT 2,20.6 min
same,LAMBDA_Z,SUBJECT 2,0.034 min⁻¹
same,MRT0-last,SUBJECT 2,27.7 min
same,TMAX,SUBJECT 2,20.8 min
same,TThresh,SUBJECT 2,5.0 min
same,% AUC Extrap,SUBJECT 3,23.2%
same,AUC0-LAST,SUBJECT 3,19608 min · ppb
same,AUC0-∞,SUBJECT 3,25623 min · ppb
same,CMAX,SUBJECT 3,1021 ppb
same,Half-life,SUBJECT 3,30.7 min
same,LAMBDA_Z,SUBJECT 3,0.024 min⁻¹
same,MRT0-last,SUBJECT 3,22.7 min
same,TMAX,SUBJECT 3,11.7 min
same,TThresh,SUBJECT 3,5.8 min
same,% AUC Extrap,SUBJECT 4,12.6%
same,AUC0-LAST,SUBJECT 4,68147 min · ppb
same,AUC0-∞,SUBJECT 4,77593 min · ppb
same,CMAX,SUBJECT 4,2238 ppb
same,Half-life,SUBJECT 4,16.4 min
same,LAMBDA_Z,SUBJECT 4,0.043 min⁻¹
same,MRT0-last,SUBJECT 4,26.2 min
same,TMAX,SUBJECT 4,18.3 min
same,TThresh,SUBJECT 4,5.8 min
same,% AUC Extrap,SUBJECT 5,12.0%
same,AUC0-LAST,SUBJECT 5,9581 min · ppb
same,AUC0-∞,SUBJECT 5,10999 min · ppb
same,CMAX,SUBJECT 5,398 ppb
same,Half-life,SUBJECT 5,17.5 min
same,LAMBDA_Z,SUBJECT 5,0.046 min⁻¹
same,MRT0-last,SUBJECT 5,22.9 min
same,TMAX,SUBJECT 5,16.7 min
same,TThresh,SUBJECT 5,7.5 min
same,observed CMAX range,across subjects,"398-2,238 ppb"
same,half life in breath,after oral 2-butanol (40 and 60 mg) to humans,11 to 22 min
same,TThresh,"mean of 30 observations (5 subjects, 6 replicates), oral 2-butanol 60 mg + 2-pentanone 60 mg",6.2 min

# From patent US20170074857A1, “MEDICATION ADHERENCE MONITORING DEVICE” (UNIVERSITY OF FLORIDA RESEARCH FOUNDATION, INC., priority 2014, published 2017)
